Entries after “also recorded” stand apart in the source; their conditions may differ. Where a name gives a salt, the structure may show the parent alone. Read-outs that look alike come from different tables or passages of the source.
Tests used:
[1] = tested on: Orlando insecticide-susceptible strain of Ae. aegypti (female mosquitoes); experiment: Glass tube spatial repellency assay; assay type: in vivo, Aedes aegypti; settings: for repellency EC50 (+TFA): applied as mixture with TFA (50 μg/cm^2); for repellency EC50 (+TFA) / repellency EC50 / effect of TFA on repellency, applied as mixture: 1 hr; for repellency EC50 / spatial repellency in screening / repellency at highest concentration tested (words): compound alone; for synergist ratio SR (EC50 compound alone/EC50 compound+TFA): TFA 50 μg/cm^2 as mixture; for 15 min repellency ratio / 30 min repellency ratio / 1 hr repellency ratio: horizontal tube, 0.5=0% repellency, 0=100% repellency; for effect of TFA on repellency, applied as mixture: TFA 50 μg/cm^2 + EC20 of test compound (permethrin 30 μg/cm^2); for effect of TFA on repellency, applied side-by-side: TFA 50 μg/cm^2 side-by-side, DEET 18 μg/cm^2; for synergism of repellency with citronella: citronella at its EC20 (20 μg/cm^2); for EC50 (95% CL), repellency of TFA esters: 1 hr exposures, Ae. aegypti females; for spatial repellency in screening: 100 μg/cm^2, 1 hr exposure; for repellency at highest concentration tested (words): 1-2 mg/cm^2
Method: (§1) The following assay was conducted according to the procedures of Jiang et al., 2019 (Jiang S., Yang L, and Bloomquist J (2019) High-throughput screening method for evaluating spatial repellency and vapor toxicity to mosquitoes. Med. Vet. Entomol.). For assessing behavioral repellency (FIG. 1), sixteen female Aedes aegypti mosquitoes were transferred to a glass tube (12.5 cm long, 2.5 cm outer diameter) with the ends covered with netting. Metofluthrin, bifenthrin, permethrin, pyrethrum, transfluthrin, deltamethrin, esfenvalerate, metofluthrin acid, bifenthrin acid, phenothrin acid, transchryanthemic acid, transfluthrin acid, deltamethrin acid, and fenvalerate acid were each dissolved in 1 mL of acetone and serial dilutions ranging from 30-0.01 μg/ml were made. Circular filter papers (5 cm^2) were saturated with 50 μL of each concentration and allowed 10 min for solvent evaporation. The filter papers were then placed in clear conical polypropylene caps and fixed to the end of the glass tubes. The netting prevented mosquito contact with the filter paper. Tubes were then aligned with a mark denoting the midline and the proportion of mosquitoes on the chemically treated side was scored at 15, 30, and 60 min. At the end of the test, the tube was placed in a cage and the ability of the mosquitoes to fly out of the tube was assessed for 30 min. […] This post-test evaluated whether any non-responding mosquitoes (not repelled) was due to intoxication or disorientation from the test chemical. For vapor toxicity, the assay was identical, except that mosquitoes were kept in the tube for 24 hr without the post-test at 1 hr, and the mortality was recorded at 24 hr.

female Ae. aegypti = experiment: Human arm bite protection assay; assay type: in vivo, Aedes aegypti; settings: for MED values Female 10: as E30, volunteer one; for MED values Female 9: as E30, volunteer two; for MED Mean: mean of three human volunteers; for MED values Male 4: minimum amount preventing 99% of bites, treated cloth patch, 1 min in cage, mixtures with TFA 0.047 or TCA 0.094 mg/cm^2
Method: A human bite protection assay was performed according to see if the repellency observed in glass tubes extended to bite protection. The assay was run in accordance with that of Tsikolia et al. (Tsikolia M, Bernier UR, Coy M, Chalaire K, Becnel J, Agramonte N, Tabanca N, Wedge D, Clark G, Linthicum K, Swale D, and J. R. Bloomquist J (2013) Insecticidal and fungicidal properties of novel trifluoromethylphenyl amides. Pestic. Biochem. Physiol. 107, 138-147). Treated cloth patches were worn by human volunteers and the number of blood fed mosquitoes was determined after 1 min spent in a cage with 500 (±10%) female Ae. aegypti. Minimum Effective Dosage (MED in mg/cm^2) is the minimum amount required to prevent 99% of bites in three human volunteers (UF IRB #201602334). Synergist ratio (SR)=MED chemical alone/MED chemical+TFA (0.047 mg/cm^2) or TCA (0.094 mg/cm^2).

[2] = tested on: insecticide-susceptible Aedes aegypti (Orlando strain) females; experiment: Glass tube vapor toxicity assay (24 hr mortality); settings: for 24 hr mort (%): horizontal tube; for mortality at 100 µg/cm2: Aedes aegypti
Method: as §1
Synergism ratio (SR)=LC50 pyrethroid/LC50 pyrethroid+EO.

Molecule | repellency EC50 (+TFA) [1] | repellency EC50 [1] | synergist ratio SR (EC50 compound alone/EC50 compound+TFA) ([1]; repellency) | MED values Female 10 (female Ae. aegypti) | MED values Female 9 (female Ae. aegypti) | MED Mean (female Ae. aegypti) | MED values Male 4 (female Ae. aegypti) | also measured
CCCCCCCCCC(C)=O [2-undecanone] | 5.1 μg/cm^2 | 59 μg/cm^2 | 11.6 | 0.375 mg/cm^2 | 0.187 mg/cm^2 | 0.219 mg/cm^2 | 0.094 mg/cm^2 | 
O=Cc1cccc(Cl)c1 [3-chlorobenzaldehyde] |  |  |  |  |  |  |  | 24 hr mort (%) ([2]; 10 μg/cm^2): 31.3%; 24 hr mort (%) ([2]; 100 μg/cm^2): 100.0%; mortality at 100 µg/cm2 ([2]; 0.25 h, read-out: 15 min % mortality): 50%; mortality at 100 µg/cm2 ([2]; 0.5 h, read-out: 30 min % mortality): 75%; mortality at 100 µg/cm2 ([2]; 1 h, read-out: 1 hr % mortality): 100%; 15 min repellency ratio ([1]; 10 μg/cm^2): 0.28; 30 min repellency ratio ([1]; 10 μg/cm^2): 0.34; 1 hr repellency ratio ([1]; 10 μg/cm^2): 0.41
O=Cc1cccc(C(=O)O)c1 [3-formyl benzoic acid] |  |  |  |  |  |  |  | 24 hr mort (%) ([2]; 10 μg/cm^2): 6.3%; 24 hr mort (%) ([2]; 100 μg/cm^2): 9.4%; 15 min repellency ratio ([1]; 10 μg/cm^2): 0.50; 30 min repellency ratio ([1]; 10 μg/cm^2): 0.47; 1 hr repellency ratio ([1]; 10 μg/cm^2): 0.47; 15 min repellency ratio ([1]; 100 μg/cm^2): 0.53; 30 min repellency ratio ([1]; 100 μg/cm^2): 0.56; 1 hr repellency ratio ([1]; 100 μg/cm^2): 0.56
O=Cc1cccc(Oc2ccccc2)c1 [3-phenoxybenzaldehyde] |  |  |  | 0.750 mg/cm^2 | >0.75 mg/cm^2 | >0.75 mg/cm^2 | >0.75 mg/cm^2 | 
CCN(CC)C(=O)c1cccc(C)c1 [DEET, N,N-diethyl-m-toluamide, reference compound] | 26 μg/cm^2 | 39 μg/cm^2 | 1.5 | 0.011 mg/cm^2 | 0.011 mg/cm^2 | 0.011 mg/cm^2 | 0.011 mg/cm^2 | effect of TFA on repellency, applied as mixture [1]: no statistically significant effect; effect of TFA on repellency, applied side-by-side [1]: synergistic effect was observed; repellency EC50 +TFA(S) ([1]; TFA (50 μg/cm^2) applied side-by-side on halves of the filter): 8.1 μg/cm^2; synergism of repellency with citronella [1]: did not synergize; fold decrease of EC50 by TFA side-by-side ([1]; repellency, TFA 50 μg/cm^2 side-by-side treatment): ~5 fold
CCCCCOC(=O)[C@@H]1[C@@H](C=C(Cl)Cl)C1(C)C [GMR 120, nPentyl (1R,3S)-3-(2,2-dichlorovinyl)-2,2-dimethylcyclopropane-1-carboxylate] |  |  |  |  |  |  |  | EC50 (95% CL), repellency of TFA esters [1]: 10 (7-15) μg/cm^2
CC1(C)[C@H](C=C(Cl)Cl)[C@H]1C(=O)OC1CCCC1 [GMR 124, Cyclopentyl (1R,3S)-3-(2,2-dichlorovinyl)-2,2-dimethylcyclopropane-1-carboxylate] |  |  |  |  |  |  |  | EC50 (95% CL), repellency of TFA esters [1]: 11 (8-15) μg/cm^2
CC1(C)[C@H](C=C(Cl)Cl)[C@H]1C(=O)OC1CCC1 [GMR 125, Cyclobutyl (1R,3S)-3-(2,2-dichlorovinyl)-2,2-dimethylcyclopropane-1-carboxylate] |  |  |  |  |  |  |  | EC50 (95% CL), repellency of TFA esters [1]: 17 (11-27) μg/cm^2
CC1(C)[C@H](C=C(Cl)Cl)[C@H]1C(=O)OC1CC1 [GMR 126, Cyclopropyl (1R,3S)-3-(2,2-dichlorovinyl)-2,2-dimethylcyclopropane-1-carboxylate] | 0.35 μg/cm^2 | 8.5 μg/cm^2 | 24 |  |  |  |  | EC50 (95% CL), repellency of TFA esters [1]: 8.5 (5-13) μg/cm^2
CCCCN(CCC(=O)OCC)C(C)=O [IR3535, ethyl butylacetylaminopropionate] |  |  |  | 0.047 mg/cm^2 | 0.047 mg/cm^2 | 0.063 mg/cm^2 | 0.094 mg/cm^2 | effect of TFA on repellency, applied as mixture [1]: no statistically significant effect
OCc1c(F)c(F)cc(F)c1F [TF-OH, transfluthrin alcohol] | 41 μg/cm^2 | 80 μg/cm^2 | about 2 |  |  |  |  | spatial repellency in screening [1]: significant repellency
CC1(C)C(C=C(Cl)Cl)C1C(=O)O (stereo not shown) [TFA, transfluthrin acid] |  |  |  | 0.094 mg/cm^2 | 0.187 mg/cm^2 | 0.156 mg/cm^2 | 0.187 mg/cm^2 | repellency of TFA by itself ([1]; TFA alone, 50 μg/cm^2 and higher): no repellent activity by itself; also recorded: no effect; also recorded: inactive by itself; synergism of repellency with citronella [1]: strong positive response; also recorded: Synergistic interactions were discovered
CCc1ccc(NC(=O)CSc2nnc(-c3cccnc3)n2CC)cc1 [VUAA-1, 2-(4-Ethyl-5-(pyridin-3-yl)-4H-1,2,4-triazol-3-ylthio)-N-(4-ethylphenyl)acetamide, reference compound] | 30 μg/cm^2 | >2000 μg/cm^2 | >67 |  |  |  |  | effect of TFA on repellency, applied side-by-side [1]: synergism disappeared; repellency EC50 +citronella ([1]; co-applied citronella at its EC20 (20 μg/cm^2)): 34 μg/cm^2; repellency at highest concentration tested (words) [1]: inactive; also recorded: repellency was not observed
O=Cc1ccccc1 [benzaldehyde, reference compound] | 15 μg/cm^2 | 118 μg/cm^2 | 8 |  |  |  |  | 
Cc1c(COC(=O)C2C(/C=C(/Cl)C(F)(F)F)C2(C)C)cccc1-c1ccccc1 (stereo not shown) [bifenthrin, Bifenthrin, reference compound] |  |  |  |  |  |  |  | spatial repellency in screening [1]: some repellency at high exposure
CC1(C)[C@H](C(=O)O[C@H](C#N)c2cccc(Oc3ccccc3)c2)[C@@H]1C=C(Br)Br [deltamethrin, Deltamethrin, reference compound] |  |  |  |  |  |  |  | spatial repellency in screening [1]: inactive as vapor phase repellents
Cc1cccc(C(N)=O)c1 [m-toluamide] |  |  |  |  |  |  |  | 15 min repellency ratio ([1]; 10 μg/cm^2): 0.50; 30 min repellency ratio ([1]; 10 μg/cm^2): 0.50; 1 hr repellency ratio ([1]; 10 μg/cm^2): 0.38; 15 min repellency ratio ([1]; 100 μg/cm^2): 0.19; 30 min repellency ratio ([1]; 100 μg/cm^2): 0.31; 1 hr repellency ratio ([1]; 100 μg/cm^2): 0.06
CC/C=C\C[C@H]1C(=O)CC[C@@H]1CC(=O)OC [methyl jasmonate, Methyl (1R,2R)-3-Oxo-2-(2Z)-2-pentenyl-cyclopentaneacetate] | 6 μg/cm^2 | 39 μg/cm^2 | 6.5 | 0.75 mg/cm^2 | 0.75 mg/cm^2 | >1 mg/cm^2 | >1.5 mg/cm^2 | 
COCc1c(F)c(F)c(CO)c(F)c1F [metofluthrin alcohol] |  |  |  |  |  |  |  | synergism of repellency with GMR 134 ([1]; alcohol 100 μg/cm^2 mixed with GMR 134 at 2 μg/cm^2): significantly synergized
CC1(C)C(C=C(Cl)Cl)C1C(=O)OCc1cccc(Oc2ccccc2)c1 (stereo not drawn) [permethrin, 3-phenoxybenzyl 3-(β,β-dichlorovinyl)-2,2-dimethylcyclopropanecarboxylate, reference compound] | 9.5 μg/cm^2 | >1000 μg/cm^2 | >105 | 0.187 mg/cm^2 | 0.187 mg/cm^2 | 0.187 mg/cm^2 | 0.187 mg/cm^2 | spatial repellency in screening [1]: inactive as vapor phase repellents; effect of TFA on repellency, applied as mixture [1]: some spatial repellency; repellency at highest concentration tested (words) [1]: repellency was not observed; repellency at highest concentration tested (words) ([1]; listed as Permethrin): inactive
benzyloxybenzaldehyde |  |  |  |  |  |  |  | 15 min repellency ratio ([1]; 10 μg/cm^2): 0.69; 30 min repellency ratio ([1]; 10 μg/cm^2): 0.69; 1 hr repellency ratio ([1]; 10 μg/cm^2): 0.63; 15 min repellency ratio ([1]; 100 μg/cm^2): 0.69; 30 min repellency ratio ([1]; 100 μg/cm^2): 0.81; 1 hr repellency ratio ([1]; 100 μg/cm^2): 0.44

— patent publication US20220304307A1, “SYNERGISTIC MIXTURES FOR ARTHROPOD TOXICITY AND REPELLENCY” (University of Florida Research Foundation, Incorporated, priority 2019, published 2022)
